{"source": "ChEMBL document CHEMBL1134853", "about": "“Essential structural factors of acetogenins, potent inhibitors of mitochondrial complex I” (Bioorg Med Chem Lett, 2002)", "target": "T1, NADH dehydrogenase [ubiquinone] 1 alpha subcomplex subunit 11 (Bos taurus, UniProt Q8HXG6)", "T1 sequence (Q8HXG6 whole entry)": "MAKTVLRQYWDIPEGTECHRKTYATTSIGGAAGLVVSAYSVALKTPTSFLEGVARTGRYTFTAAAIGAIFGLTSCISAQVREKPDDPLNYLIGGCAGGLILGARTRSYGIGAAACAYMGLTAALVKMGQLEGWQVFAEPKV", "experiment": "Inhibitory activity against bovine heart mitochondrial NADH ubiquinone oxidoreductase (complex I)", "note": "pIC50: −log10 of the molar value.", "data": [{"smiles": "C[C@H]1C=C(CCCCCCCCCCCC[C@@H](O)[C@H]2CC[C@H]([C@H]3CC[C@H]([C@@H](C)O)O3)O2)C(=O)O1", "values": [{"measurement": "pIC50", "value": 8.51}]}, {"smiles": "CCCCCCCCCC[C@@H](O)[C@H]1CC[C@H]([C@H]2CC[C@H]([C@H](O)CCCCCCCCCCCCC3=C[C@H](C)OC3=O)O2)O1", "note": "[ISODESAACETYLUVARICIN]", "values": [{"measurement": "pIC50", "value": 9.05}]}]}
